“Also recorded” adds a separate entry of the source.
Experiments:
Influenza A/WSN/33 virus = format: cell-based
[1] = test system: Influenza A/PR/8/34 virus; format: cell-based
[2] = test system: IFN beta promoter (MDCK-IFNb-Luc); format: cell-based, canine
[3] = biological target: influenza virus replication machinery (PB1, PB2, PA, nucleocapsid protein of A/WSN/33) (Influenza A virus, UniProt P03427+P03430+P15659+P15682); assay: Influenza virus mini-genome assay; format: cell-based, influenza virus strains A/WSN/33; conditions: A549 cells; increasing ASN2 concentrations
[4] = test system: Influenza A/Vietnam/1203/2004 (H5N1) virus; format: cell-based; conditions: A549 cells; multiplicity of 0.01 pfu; 2 days
[5] = test system: IFN production by MDCK cells; format: cell-based, canine

| Compound | A/WSN/33 virus replication (HA titer) (Influenza A/WSN/33 virus) | A/PR/8/34 virus replication (HA titer) [1] | induction of IFNb-luc reporter expression [2] | mini-genome luciferase activity [3] | A/Vietnam/1203/2004 (H5N1) virus replication [4] | IFN production (IFN bioassay, VSV-GFP growth) [5] |
| --- | --- | --- | --- | --- | --- | --- |
| N=C(N/N=C1/C(=O)N(Cc2ccccc2)c2ccccc21)SCC(=O)Nc1ccccc1 [ASN2] | able to attenuate both A/PR/8/34 and A/WSN/33 virus replication in a dose-dependent manner; also recorded: attenuated | able to attenuate both A/PR/8/34 and A/WSN/33 virus replication in a dose-dependent manner; also recorded: attenuated | requires virus infection in order to induce IFN in the reporter assay; also recorded: depends on influenza A/PR/8/34 virus infection to induce IFN | decreased with increasing concentrations; also recorded: inhibited | antiviral activity; also recorded: attenuated | able to induce biologically relevant levels of IFN once the Compound-treated cells are also infected with A/PR/8/34; also recorded: able to induce the production of IFN only if the treated cells are infected with influenza A/PR/8/34 virus |
| NS(=O)(=O)c1ccc2nc3c(nc2c1)-c1cccc2cccc-3c12 [ENA51] |  |  | induces IFN independent of virus |  |  |  |

— patent US20120308608A1 (priority 2011, published 2012)
